The record followed here is US6117889A, “7-Azabicyclo-[2.2.1]-heptane and -heptene derivatives as analgesics and anti-inflammatory agents” (priority 1996, dated 2000).

Read-outs that look alike come from different tables or passages of the source.

The test system of assay [1] is acetylcholine nicotinic receptor. In words: nicotinic receptor binding, [3H]-NMCI radioligand, rat cortex (Table 5). As to the method: 7-aza-bicyclo[2.2.1]-heptanes and -heptenes were evaluated for their ability to bind to the acetylcholine nicotinic receptor using a standard binding assay, e.g. X. Zhang and A. Nordberg, Arch. Pharmacol., 348, 28 (1993); R. E. Middleton and J. B. Cohen, Biochemistry, 30, 6987 (1991), with nicotine sulfate as the reference compound, rat cortex as the tissue substrate, and a [^3 H]-NMCI radioligand.

A short description of assay [2]: analgesic activity, Straub-Tail assay (Table 4). In kind it is in vivo. The text has this: A wide variety of biological assays have been used to evaluate the ability of a compound to act as an analgesic. Any of these known assays can be used to evaluate the analgesic ability of the compounds disclosed herein. The Straub-tail reaction, which is characteristic of opiate alkaloids, has been used as an assay for opiate agonists and antagonists. The assay is described in detail in Br. J. of Pharmacol. 1969, 36, 225. Another accepted assay for analgesic activity is the hot plate analgesia assay, described in J. of Pharmacol. Exp. Therap. 1953, 107, 385. An assay for the evaluation of the ability of a compound to bind to an opiate receptor is described in Mol. Pharmacol. 1974, 10, 868.
[…] Daly et al. J. Am. […] Chem. Soc. 1992, 114, 3475; T. Li, et al. Bioorganic and Medicinal Chemistry Letters 1993, 3, 2759.

[3] abbreviates: Straub-Tail assay, read-out: ED50.

Regarding `CN1C2CCC1C(c1ccc(Cl)nc1)C2` (stereo not drawn) [R = CH3], the Inhibition % in assay [1] (testing level 10^-5 M) amounted to 81%.

As for `CN1[C@@H]2CC[C@H]1[C@H](c1ccc(Cl)nc1)C2` (relative stereo) [drawing 33], the ED50 in assay [2] (setting [3]) was under 0.01 mg/kg.

Consider `Clc1ccc([C@@H]2C[C@H]3CC[C@@H]2N3CCc2ccccc2)cn1` (relative stereo), for which the ED50 in assay [2] (setting [3]) was under 1 mg/kg.

As to `CC(C)(C)Oc1ccc([C@@H]2C[C@H]3CC[C@@H]2N3)cn1` (relative stereo), the ED50 in assay [2] (setting [3]) was about 1 mg/kg.

Consider `C[N+]1(C)C2CCC1C(c1ccc(Cl)nc1)C2` (stereo not drawn), for which the Inhibition % in assay [1] (testing level 10^-7 M) was determined as 100%; in assay [1] (testing level 10^-9) it was 49%.

In the case of `Clc1ccc([C@@H]2C[C@H]3CC[C@@H]2N3CC2CC2)cn1` (relative stereo), the “analgesic activity (Straub-Tail), % at 1000 μg/Kg” value in assay [2] (@ 1000 (μg/Kg)) is on record as 100%.

As to `c1cncc([C@@H]2C[C@H]3CC[C@@H]2N3)c1` (relative stereo), in assay [2] (setting [3]), the ED50 came out at 0.25 mg/kg.

As for `COc1ccc([C@@H]2C[C@H]3CC[C@@H]2N3)cn1` (relative stereo), the ED50 in assay [2] (setting [3]) is 0.75 mg/kg.

Take `Clc1ccc(C2CC3CCC2N3)cn1` (stereo not drawn) [R = H]: in assay [1] (testing level 10^-7 M), the Inhibition % was 24%.

Consider `N=CN1C2CCC1C(c1cccnc1)C2` (stereo not drawn), for which, in assay [1] (testing level 10^-9), the Inhibition % stood at 5%.

As for `Clc1ccc([C@@H]2C[C@H]3C=C[C@@H]2N3)cn1` (relative stereo), the ED50 in assay [2] (setting [3]) was under 1 mg/kg.

Regarding `N=CN1[C@@H]2CC[C@H]1[C@H](c1ccc(Cl)nc1)C2` (relative stereo), the “analgesic activity (Straub-Tail), % at 100” value in assay [2] (@ 100) is 99%.

As to `N=CN1C2CCC1C(c1ccc(Cl)nc1)C2` (stereo not drawn), the Inhibition % in assay [1] (testing level 10^-9) came to 49%; in assay [1] (testing level 10^-11), 22%.

For `ClCCN1[C@@H]2CC[C@H]1[C@H](c1ccc(Cl)nc1)C2` (relative stereo), the ED50 in assay [2] is about 0.1 mg/kg.

For `Fc1ccc([C@@H]2C[C@H]3CC[C@@H]2N3)cn1` (relative stereo), the ED50 in assay [2] (setting [3]) was about 0.05 mg/kg.

As for `Clc1ccc([C@@H]2C[C@H]3CC[C@@H]2N3)cn1` (relative stereo), the ED50 in assay [2] (Straub-Tail assay) stood at 0.01 mg/kg.

The ED50 is the midpoint of the dose-response relation.
